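Growth conditions: 96-well plates. Treatment: test compound, 48 hours, 5 concentrations. Analysis: linear interpolation between bracketing concentrations; unreached endpoints set to highest concentration. The concentration for 50% growth inhibition is given as GI50. The concentration for full growth arrest is given as TGI.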
Tests used:
Test in all cases: DTP human tumour cell line panel, 48 h
OVCAR-3 ovarian = tested on: OVCAR-3 ovarian
NCI-H226 lung = tested on: NCI-H226 lung
IGROV1 ovarian = tested on: IGROV1 ovarian
SF-268 CNS = tested on: SF-268 CNS
OVCAR-8 ovarian = tested on: OVCAR-8 ovarian
OVCAR-5 ovarian = tested on: OVCAR-5 ovarian
UO-31 renal = tested on: UO-31 renal
CAKI-1 renal = tested on: CAKI-1 renal
HOP-92 NSCLC = tested on: HOP-92 NSCLC
MDA-MB-231 breast = tested on: MDA-MB-231 breast

## S=C=NCCc1ccccc1
OVCAR-3 ovarian
  TGI: 2.09 µM
NCI-H226 lung
  TGI: 2.88 µM
IGROV1 ovarian
  TGI: 1.37 µM
SF-268 CNS
  TGI: 3.65 µM
OVCAR-8 ovarian
  TGI: 5.57 µM
OVCAR-5 ovarian
  TGI: 2.96 µM
UO-31 renal
  TGI: 3.94 µM

## COC1OC(C)C2OC(C)(C)OC2C1OC(C)=O (stereo not drawn)
OVCAR-3 ovarian
  TGI: > 100 µM
CAKI-1 renal
  TGI: > 100 µM
NCI-H226 lung
  TGI: > 100 µM
IGROV1 ovarian
  TGI: > 100 µM
SF-268 CNS
  TGI: > 100 µM
OVCAR-8 ovarian
  TGI: > 100 µM
OVCAR-5 ovarian
  TGI: > 100 µM
HOP-92 NSCLC
  TGI: > 100 µM

## CC1=C(C)C2(O)C(=C(C)C1=O)/C(=C(/O)c1ccccc1)c1nc3ccccc3n12 (stereo not drawn)
OVCAR-3 ovarian
  GI50: 12.6 µM
  TGI: 38.6 µM
CAKI-1 renal
  GI50: 17.3 µM
  TGI: 55.9 µM
NCI-H226 lung
  GI50: 23.6 µM
  TGI: 58.1 µM
IGROV1 ovarian
  GI50: 12.3 µM
  TGI: 30.4 µM
SF-268 CNS
  GI50: 35.7 µM
  TGI: > 100 µM
OVCAR-8 ovarian
  GI50: 18 µM
  TGI: 41 µM
UO-31 renal
  GI50: 25.6 µM
  TGI: > 100 µM
HOP-92 NSCLC
  GI50: 16100 nM
  TGI: 41.7 µM
MDA-MB-231 breast
  GI50: 15400 nM
  TGI: 30 µM

## Cc1ccc(-c2nc([P+](c3ccccc3)(c3ccccc3)c3ccccc3)c(Nc3ccccc3)o2)cc1
OVCAR-3 ovarian
  GI50: 0.288 µM
  TGI: 0.886 µM
CAKI-1 renal
  GI50: 1.08 µM
  TGI: 2.34 µM
IGROV1 ovarian
  GI50: 0.708 µM
  TGI: 2.08 µM
SF-268 CNS
  GI50: 1.15 µM
  TGI: 2.53 µM
OVCAR-8 ovarian
  GI50: 1.05 µM
  TGI: 3.27 µM
OVCAR-5 ovarian
  GI50: 1310 nM
  TGI: 2.68 µM
UO-31 renal
  GI50: 0.421 µM
  TGI: 1.73 µM
HOP-92 NSCLC
  GI50: 188 nM
  TGI: 1.16 µM
MDA-MB-231 breast
  GI50: 728 nM
  TGI: 2.09 µM

## COc1cc2c(=O)n(CCN(C)C)c3c4cc5c(cc4ccc3c2cc1OC)OCO5
OVCAR-3 ovarian
  GI50: 0.583 µM
  TGI: 19 µM
NCI-H226 lung
  GI50: 0.512 µM
  TGI: 1.27 µM
IGROV1 ovarian
  GI50: 0.257 µM
  TGI: 2.55 µM
SF-268 CNS
  GI50: 0.222 µM
OVCAR-8 ovarian
  GI50: 0.478 µM
  TGI: > 50 µM
OVCAR-5 ovarian
  GI50: 519 nM
  TGI: 3.8 µM
UO-31 renal
  GI50: 0.119 µM
  TGI: 0.48 µM
HOP-92 NSCLC
  GI50: 505 nM
  TGI: 2.6 µM
MDA-MB-231 breast
  GI50: 824 nM
  TGI: 3.53 µM

## c1ccc(P(=C2c3ccccc3-c3ccccc32)(c2ccccc2)c2ccccc2)cc1
OVCAR-3 ovarian
  TGI: 6.13 µM
CAKI-1 renal
  TGI: > 100 µM
IGROV1 ovarian
  TGI: > 100 µM
SF-268 CNS
  TGI: 69 µM
OVCAR-8 ovarian
  TGI: 12.7 µM
OVCAR-5 ovarian
  TGI: 48.3 µM
UO-31 renal
  TGI: 70.7 µM
HOP-92 NSCLC
  TGI: 7.4 µM

## COc1ccc(Nc2nc3cc(N)cc(N)c3nc2-c2ccccc2)cc1OC
OVCAR-3 ovarian
  GI50: 29.9 µM
  TGI: > 100 µM
CAKI-1 renal
  GI50: 18.3 µM
  TGI: 66 µM
NCI-H226 lung
  GI50: 18.7 µM
  TGI: 57.1 µM
IGROV1 ovarian
  GI50: 24.8 µM
  TGI: > 100 µM
SF-268 CNS
  GI50: 14.2 µM
  TGI: 47.1 µM
OVCAR-8 ovarian
  GI50: 33.6 µM
  TGI: > 100 µM
OVCAR-5 ovarian
  GI50: 29700 nM
  TGI: 72.7 µM
UO-31 renal
  GI50: 28.1 µM
  TGI: > 100 µM
MDA-MB-231 breast
  GI50: 4920 nM
  TGI: 18.5 µM

## CN(C)c1ccc(C(c2ccc(Cl)cc2)c2ccc(N(C)C)cc2)cc1
OVCAR-3 ovarian
  TGI: > 100 µM
CAKI-1 renal
  TGI: > 100 µM
IGROV1 ovarian
  TGI: > 100 µM
SF-268 CNS
  TGI: > 100 µM
OVCAR-8 ovarian
  TGI: > 100 µM
OVCAR-5 ovarian
  TGI: > 100 µM
UO-31 renal
  TGI: > 100 µM
HOP-92 NSCLC
  TGI: > 100 µM
MDA-MB-231 breast
  TGI: > 100 µM

Source: PubChem BioAssay (NCI)
